Two molecules from patent US11872210B2, “Thiol isomerases inhibitors and use thereof” (WESTERN NEW ENGLAND UNIVERSITY, priority 2017, dated 2024) can be followed below.

For experiment [1], the target named is T1, ERp57 (Homo sapiens, UniProt P30101).
T1 construct: purchased AbCam (Cambridge Mass.)
T1 sequence (P30101 25-505): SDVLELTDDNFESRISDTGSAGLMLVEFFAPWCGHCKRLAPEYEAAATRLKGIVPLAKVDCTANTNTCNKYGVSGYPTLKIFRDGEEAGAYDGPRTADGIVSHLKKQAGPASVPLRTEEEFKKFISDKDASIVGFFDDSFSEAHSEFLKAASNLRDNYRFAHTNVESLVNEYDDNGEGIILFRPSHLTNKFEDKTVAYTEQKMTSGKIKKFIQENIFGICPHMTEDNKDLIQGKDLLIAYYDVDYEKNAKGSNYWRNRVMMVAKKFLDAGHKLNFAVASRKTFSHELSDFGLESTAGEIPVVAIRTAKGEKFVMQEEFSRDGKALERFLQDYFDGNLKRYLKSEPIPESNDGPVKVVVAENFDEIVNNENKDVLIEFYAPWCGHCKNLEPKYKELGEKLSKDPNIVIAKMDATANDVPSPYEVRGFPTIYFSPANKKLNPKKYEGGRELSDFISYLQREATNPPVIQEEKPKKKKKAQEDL
Description: Insulin-based turbidometric assay of thiol isomerase inhibitory activity (ERp57). It counts as biochemical. The note with it: specificity assay, insulin turbidity.

Experiment [2] concerns human washed platelets. Description: Collagen stimulated platelet aggregation. It counts as cell-based. The note with it: collagen 1 μg/mL, 3 minutes. The method, then:
Human Platelet Preparation: 50 mL of blood was drawn from drug free, consenting individuals, into a syringe containing 5 mL sodium citrate (4% w/v) and 7.5 mL warmed ACD (85 mM sodium citrate, 71 mM citric acid and 110 mM glucose). Blood was centrifuged at 102 g for 20 minutes to obtain platelet-rich plasma (PRP), which was then decanted and 104 prostacyclin (PGI2 125 μg/mL, solubilized in ethanol) added. Platelets were pelleted by centrifugation at 1413 g for 10 minutes, platelet poor plasma was discarded and the pellet resuspended in 25 mL Tyrode's-HEPES buffer (134 mM NaCl, 2.9 mM KCl, 0.34 mM Na2HPO4, 12 mM NaHCO3, 20 mM HEPES, 1 mM MgCl2 and 5 mM glucose pH 7.3), 3 mL of ACD and 10 μL PGI2 were added and then following centrifugation at 1413 g for 10 minutes, the platelet pellet was re-suspended to the appropriate cell density using Tyrode's buffer. Platelets were rested for 30 minutes at 30° C. to allow platelet responses to recover.
Platelet Aggregation: 445 μL of washed platelets at (4×10^8 cells/mL) were incubated for 5 minutes with vehicle (0.1% (v/v) DMSO) or 54 zafirlukast or montelukast. 50 μL of collagen 1 μg/mL (final), was added and light transmission monitored for 3 minutes at 37° C. with constant stirring (1200 rpm) using an aggregometer (Chronolog, USA).
Statistical analyses: All raw data was analyzed by 1-way ANOVA and where appropriate normalized to vehicle. GraphPad Prism was used to perform statistical analysis by ANOVA or students T test. The level of significance of p values is as follows, *p<0.05,**p<0.01, ***p<0.005. Data presented are mean+/−standard error of the mean.
Zafirlukast inhibits platelet aggregation: Human washed platelets (4×10^8 cells/mL) were pre-treated with 0.1 μM-10 μM zafirlukast or vehicle. Platelets were stimulated with collagen 1 μg/mL and allowed to aggregate for 3 minutes. Aggregation traces representative of the response were obtained and dose responses compared.

As for `CC(C)(C=O)Cc1cc(C(C)(C)C)c(O)c(C(C)(C)C)c1` [CGP-13501], the “specificity among thiol isomerases” value in experiment [1] was “specific for ERp57”.

For the molecule `CC(C)(O)c1ccccc1CC[C@@H](SCC1(CC(=O)O)CC1)c1cccc(/C=C/c2ccc3ccc(Cl)cc3n2)c1` [montelukast, [R-(E)]-1-[[[1-[3-[2-(7-chloro-2-quinolinyl)ethenyl]phenyl]-3-[2-(7-chloro-2-quinolinyl)ethenyl]phenyl]-3-[2-(1-hydroxy-1-methylethyl)phenyl]propyl]thio]methyl cyclopropane acetic acid], the “platelet aggregation, normalized to vehicle” value in experiment [2] (10 μM) is on record as 3.99±0.800%. Further, testing at 2.5 µM in experiment [2] (Homo sapiens, Platelet, 0.05 h, 2.5 μM) gave an inhibition of 62.1%. Further, at 3.75 µM the inhibition in experiment [2] (Homo sapiens, Platelet, 0.05 h, 3.75 μM) was 83.6%. Besides, in experiment [2] (Homo sapiens, Platelet, 0.05 h, 5 μM), the inhibition at 5 µM came out at 90.6%. The molecule also came in with an inhibition at 10 µM in experiment [2] (Homo sapiens, Platelet, 0.05 h, 10 μM) of 96.1%.

For orientation: inhibition means the drop in the measured response relative to a control, in per cent.
